Measurements: paper PMC5433425 (PeerJ, 2017)
Where “and” joins values, the source holds several entries; their conditions need not be identical. Equal values may be shown once.

What was measured:
E. coli AG100tet = assay: EtBr efflux by real-time fluorometry; details: 80 µM
Protocol: Control tubes with only cells and cells with and without 0.4% glucose were included. The fluorescence was measured in a Rotor-Gene 3000 and the data was acquired every 30 s for 30 min at 37 °C. The efflux activity was quantified by comparing the fluorescence data obtained under conditions that promote efflux (presence of glucose and absence of efflux inhibitor) with the data from the control in which the bacteria are under conditions of no efflux (presence of an inhibitor and no energy source).

[1] = tested on: E. coli AG100A (AcrAB pump-deficient); assay: MIC, broth microdilution; type: cell-based, Escherichia coli; details: Escherichia coli
[2] = tested on: E. coli AG100tet (AcrAB overexpressing); assay: MIC, broth microdilution; type: cell-based, Escherichia coli; details: Escherichia coli
[3] = tested on: E. coli K-12 AG100 (wild-type); assay: MIC, broth microdilution; type: cell-based; details: Escherichia coli; E. coli AG100 wild-type; read-out: MIC

CN(C)CCCN1c2ccccc2Sc2ccc(Cl)cc21 [CPZ, chlorpromazine]
Fluorescence raw data, Channel Cycling A.530/585hp (E. coli AG100tet; cycle 18, + glucose): 6.686 | Fluorescence raw data, Channel Cycling A.530/585hp (E. coli AG100tet; cycle 18, without glucose): 8.027 | Fluorescence raw data, Channel Cycling A.530/585hp (E. coli AG100tet; cycle 19, + glucose): 6.605 | Fluorescence raw data, Channel Cycling A.530/585hp (E. coli AG100tet; cycle 19, without glucose): 8.219 | Fluorescence raw data, Channel Cycling A.530/585hp (E. coli AG100tet; cycle 20, + glucose): 6.711 | Fluorescence raw data, Channel Cycling A.530/585hp (E. coli AG100tet; cycle 20, without glucose): 8.174 | Fluorescence raw data, Channel Cycling A.530/585hp (E. coli AG100tet; cycle 21, + glucose): 6.762 | Fluorescence raw data, Channel Cycling A.530/585hp (E. coli AG100tet; cycle 21, without glucose): 8.255 | Fluorescence raw data, Channel Cycling A.530/585hp (E. coli AG100tet; cycle 22, + glucose): 6.7278 | Fluorescence raw data, Channel Cycling A.530/585hp (E. coli AG100tet; cycle 22, without glucose): 8.507 | Fluorescence raw data, Channel Cycling A.530/585hp (E. coli AG100tet; cycle 23, + glucose): 6.745 | Fluorescence raw data, Channel Cycling A.530/585hp (E. coli AG100tet; cycle 23, without glucose): 8.467 | Fluorescence raw data, Channel Cycling A.530/585hp (E. coli AG100tet; cycle 24, + glucose): 6.771 | Fluorescence raw data, Channel Cycling A.530/585hp (E. coli AG100tet; cycle 24, without glucose): 8.6 | Fluorescence raw data, Channel Cycling A.530/585hp (E. coli AG100tet; cycle 25, + glucose): 6.796 | Fluorescence raw data, Channel Cycling A.530/585hp (E. coli AG100tet; cycle 25, without glucose): 8.667 | Fluorescence raw data, Channel Cycling A.530/585hp (E. coli AG100tet; cycle 26, + glucose): 6.92 | Fluorescence raw data, Channel Cycling A.530/585hp (E. coli AG100tet; cycle 26, without glucose): 8.734 | Fluorescence raw data, Channel Cycling A.530/585hp (E. coli AG100tet; cycle 27, + glucose): 6.8217 | Fluorescence raw data, Channel Cycling A.530/585hp (E. coli AG100tet; cycle 27, without glucose): 8.768 | Fluorescence raw data, Channel Cycling A.530/585hp (E. coli AG100tet; cycle 28, + glucose): 6.925 | Fluorescence raw data, Channel Cycling A.530/585hp (E. coli AG100tet; cycle 28, without glucose): 8.988 | Fluorescence raw data, Channel Cycling A.530/585hp (E. coli AG100tet; cycle 29, + glucose): 6.828 | Fluorescence raw data, Channel Cycling A.530/585hp (E. coli AG100tet; cycle 29, without glucose): 9.111 | Fluorescence raw data, Channel Cycling A.530/585hp (E. coli AG100tet; cycle 30, + glucose): 6.9 | Fluorescence raw data, Channel Cycling A.530/585hp (E. coli AG100tet; cycle 30, without glucose): 8.957 | Fluorescence raw data, Channel Cycling A.530/585hp (E. coli AG100tet; cycle 31, + glucose): 6.782 | Fluorescence raw data, Channel Cycling A.530/585hp (E. coli AG100tet; cycle 31, without glucose): 9.091 | Fluorescence raw data, Channel Cycling A.530/585hp (E. coli AG100tet; cycle 32, + glucose): 6.729 | Fluorescence raw data, Channel Cycling A.530/585hp (E. coli AG100tet; cycle 32, without glucose): 9.229 | Fluorescence raw data, Channel Cycling A.530/585hp (E. coli AG100tet; cycle 33, + glucose): 6.907 | Fluorescence raw data, Channel Cycling A.530/585hp (E. coli AG100tet; cycle 33, without glucose): 9.3007 | Fluorescence raw data, Channel Cycling A.530/585hp (E. coli AG100tet; cycle 34, + glucose): 6.901 | Fluorescence raw data, Channel Cycling A.530/585hp (E. coli AG100tet; cycle 34, without glucose): 9.345 | Fluorescence raw data, Channel Cycling A.530/585hp (E. coli AG100tet; cycle 35, + glucose): 6.783 | Fluorescence raw data, Channel Cycling A.530/585hp (E. coli AG100tet; cycle 35, without glucose): 9.405 | Fluorescence raw data, Channel Cycling A.530/585hp (E. coli AG100tet; cycle 36, + glucose): 6.785 | Fluorescence raw data, Channel Cycling A.530/585hp (E. coli AG100tet; cycle 36, without glucose): 9.367 | Fluorescence raw data, Channel Cycling A.530/585hp (E. coli AG100tet; cycle 37, + glucose): 6.975 | Fluorescence raw data, Channel Cycling A.530/585hp (E. coli AG100tet; cycle 37, without glucose): 9.488 | Fluorescence raw data, Channel Cycling A.530/585hp (E. coli AG100tet; cycle 38, + glucose): 6.976 | Fluorescence raw data, Channel Cycling A.530/585hp (E. coli AG100tet; cycle 38, without glucose): 9.581 | Fluorescence raw data, Channel Cycling A.530/585hp (E. coli AG100tet; cycle 39, + glucose): 6.681 | Fluorescence raw data, Channel Cycling A.530/585hp (E. coli AG100tet; cycle 39, without glucose): 9.571 | Fluorescence raw data, Channel Cycling A.530/585hp (E. coli AG100tet; cycle 40, + glucose): 6.952 | Fluorescence raw data, Channel Cycling A.530/585hp (E. coli AG100tet; cycle 40, without glucose): 9.707 | Fluorescence raw data, Channel Cycling A.530/585hp (E. coli AG100tet; cycle 41, + glucose): 6.766 | Fluorescence raw data, Channel Cycling A.530/585hp (E. coli AG100tet; cycle 41, without glucose): 9.731 | Fluorescence raw data, Channel Cycling A.530/585hp (E. coli AG100tet; cycle 42, + glucose): 6.916 | Fluorescence raw data, Channel Cycling A.530/585hp (E. coli AG100tet; cycle 42, without glucose): 9.718 | Fluorescence raw data, Channel Cycling A.530/585hp (E. coli AG100tet; cycle 43, + glucose): 6.844 | Fluorescence raw data, Channel Cycling A.530/585hp (E. coli AG100tet; cycle 43, without glucose): 9.8689 | Fluorescence raw data, Channel Cycling A.530/585hp (E. coli AG100tet; cycle 44, + glucose): 6.82 | Fluorescence raw data, Channel Cycling A.530/585hp (E. coli AG100tet; cycle 44, without glucose): 9.768 | Fluorescence raw data, Channel Cycling A.530/585hp (E. coli AG100tet; cycle 45, without glucose): 9.807 | Fluorescence raw data, Channel Cycling A.530/585hp (E. coli AG100tet; cycle 46, without glucose): 9.797 | Fluorescence raw data, Channel Cycling A.530/585hp (E. coli AG100tet; cycle 47, without glucose): 9.663 | Fluorescence raw data, Channel Cycling A.530/585hp (E. coli AG100tet; cycle 48, without glucose): 9.794 | Fluorescence raw data, Channel Cycling A.530/585hp (E. coli AG100tet; cycle 49, without glucose): 9.745 | Fluorescence raw data, Channel Cycling A.530/585hp (E. coli AG100tet; cycle 50, without glucose): 9.769 | Fluorescence raw data, Channel Cycling A.530/585hp (E. coli AG100tet; cycle 51, without glucose): 9.982 | Fluorescence raw data, Channel Cycling A.530/585hp (E. coli AG100tet; cycle 52, without glucose): 9.725 | Fluorescence raw data, Channel Cycling A.530/585hp (E. coli AG100tet; cycle 53, without glucose): 9.758 | Fluorescence raw data, Channel Cycling A.530/585hp (E. coli AG100tet; cycle 54, without glucose): 9.768 | Fluorescence raw data, Channel Cycling A.530/585hp (E. coli AG100tet; cycle 55, without glucose): 9.755 | Fluorescence raw data, Channel Cycling A.530/585hp (E. coli AG100tet; cycle 56, without glucose): 9.766 | Fluorescence raw data, Channel Cycling A.530/585hp (E. coli AG100tet; cycle 57, without glucose): 9.676 | Fluorescence raw data, Channel Cycling A.530/585hp (E. coli AG100tet; cycle 58, without glucose): 9.567 | Fluorescence raw data, Channel Cycling A.530/585hp (E. coli AG100tet; cycle 59, without glucose): 9.679 | Fluorescence raw data, Channel Cycling A.530/585hp (E. coli AG100tet; cycle 60, without glucose): 9.626 | Fluorescence raw data, Channel Cycling A.530/585hp (E. coli AG100tet; cycle 61, without glucose): 9.5963 | MIC [1]: 60 µg/mL and 169 µM | MIC [2]: 280 µg/mL and 788 µM | MIC [3]: 120 µg/mL and 338 µM
